In ChEMBL document CHEMBL2046331, “Lead optimization of a sulfonylurea-based piperazine pyridazinone series of glucan synthase inhibitors” (Bioorg Med Chem Lett, 2012):
In brackets after ≈: the same amount, converted by molar mass. Activity calls are given as the source filed them. No cut-off for these calls is given here.

Columns and labels:
Beta-1,3-glucan synthase = molecular target: T1, Beta-1,3-glucan synthase (Candida albicans, UniProt O13383); experiment: Inhibition of glucan synthase in Candida albicans BWP17 membrane; type: cell membranes
T1 sequence (O13383 whole entry): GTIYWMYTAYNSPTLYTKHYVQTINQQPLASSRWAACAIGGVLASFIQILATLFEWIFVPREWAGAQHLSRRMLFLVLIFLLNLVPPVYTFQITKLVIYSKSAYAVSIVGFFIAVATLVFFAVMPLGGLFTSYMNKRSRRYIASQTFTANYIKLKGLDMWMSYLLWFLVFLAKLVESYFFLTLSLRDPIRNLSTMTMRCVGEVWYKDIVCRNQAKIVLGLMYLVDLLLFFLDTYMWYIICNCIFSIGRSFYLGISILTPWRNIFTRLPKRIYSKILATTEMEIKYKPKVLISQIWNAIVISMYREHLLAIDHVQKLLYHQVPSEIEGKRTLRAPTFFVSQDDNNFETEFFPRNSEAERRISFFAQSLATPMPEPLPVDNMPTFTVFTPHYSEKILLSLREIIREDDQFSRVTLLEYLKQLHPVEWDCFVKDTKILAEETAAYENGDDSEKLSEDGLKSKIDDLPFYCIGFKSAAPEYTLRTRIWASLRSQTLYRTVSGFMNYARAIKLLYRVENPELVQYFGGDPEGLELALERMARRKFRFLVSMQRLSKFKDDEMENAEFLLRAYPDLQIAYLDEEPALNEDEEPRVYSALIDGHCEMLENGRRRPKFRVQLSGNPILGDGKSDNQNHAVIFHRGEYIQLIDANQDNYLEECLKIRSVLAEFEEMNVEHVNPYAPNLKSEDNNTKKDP

Candida albicans [1] = experiment: Antifungal activity against Candida albicans C693 by broth dilution method; type: functional; settings: read-out: MIC100
Nakaseomyces glabratus = experiment: Antifungal activity against Candida glabrata C624 by broth dilution method; type: functional; settings: read-out: MIC100
Aspergillus fumigatus = experiment: Antifungal activity against Aspergillus fumigatus ND158 by broth dilution method; type: functional; settings: read-out: MEC
Candida albicans [2] = experiment: Antifungal activity against Candida albicans C43 by broth dilution method; type: functional; settings: read-out: MIC100
Candida albicans [3] = experiment: Antifungal activity against Candida albicans C375 by broth dilution method; type: functional; settings: read-out: MIC100
[4] = AUC (0 to 6 hrs) in rat at 10 mg/kg, po; type: ADME, organism-based; set-up: time < 6 hr, dose 10 mg/kg, route oral; settings: plasma
Candida albicans [5] = experiment: Antifungal activity against Candida albicans C43 by broth dilution method in presence of 25% human serum; type: functional; settings: read-out: MIC100
[6] = Clearance in rat hepatocytes assessed per million cells; type: ADME, cell-based, Hepatocyte; settings: read-out: CLH
[7] = Clearance in human hepatocytes assessed per million cells; type: ADME, cell-based, Hepatocyte; settings: read-out: CLH
Candida albicans [8] = experiment: Antifungal activity against Candida albicans C43 systemically infected in mouse assessed as reduction in fungal burden in kidney at 100 mg/kg, ip administered daily for 4 days relative to vehicle treated control; type: functional, organism-based; set-up: dose 100 mg/kg
Candida albicans [9] = experiment: Antifungal activity against Candida albicans C43 systemically infected in mouse assessed as reduction in fungal burden in kidney at 100 mg/kg, ip administered daily for 4 days relative to caspofungin; type: functional, organism-based; set-up: dose 100 mg/kg

IC50 (Beta-1,3-glucan synthase) [nM] | MIC (Candida albicans [1]) [µg/mL] | MIC (Nakaseomyces glabratus) [µg/mL] | MIC (Candida albicans [2]) [µg/mL] | MIC (Candida albicans [3]) [µg/mL] | AUC(0-t) at 6 h [4] [ng·h/mL] | MIC (Candida albicans [5]) [µg/mL] | hepatocyte CLint [6] [µL/min/1e6 cells] | hepatocyte CLint [7] [µL/min/1e6 cells] | Structure (SMILES) | minimal effective concentration (Aspergillus fumigatus) [µg/mL] | Activity (Candida albicans [8]) | Activity (Candida albicans [9])
361 | 0.52 (≈ 1.04 µM) | 0.03 (≈ 0.0602 µM) | – | – | – | – | – | – | CC(C)NS(=O)(=O)N1CCN(/C(C=N)=C(\OC2CCCC2)C(=O)Nc2cccc(Cl)c2)CC1 | – | – | –
201 | 1.04 (≈ 1.9 µM) | 2.08 (≈ 3.8 µM) | – | – | – | – | – | – | CC1(CO/C(C(=O)Nc2cccc(Cl)c2)=C(/C=N)N2CCN(S(=O)(=O)NCc3cccnc3)CC2)CC1 | – | – | –
297 | 0.52 (≈ 0.898 µM) | 0.52 (≈ 0.898 µM) | 2.08 (≈ 3.59 µM) | 4.17 (≈ 7.2 µM) | – | – | – | – | CC1(CO/C(C(=O)Nc2cccc(Cl)c2)=C(/C=N)N2CCN(S(=O)(=O)NCc3ccc(F)c(N)c3)CC2)CC1 | 2.08 | – | –
– | – | – | – | – | 2580 | – | – | – | Cc1ccc(CNS(=O)(=O)N2CCN(/C(C=N)=C(\OC3CCC(F)C3)C(=O)Nc3cc(F)cc(F)c3)CC2)cc1N (mixture of isomers) | – | – | –
111 | 0.06 (≈ 0.104 µM) | 0.13 (≈ 0.224 µM) | 0.13 (≈ 0.224 µM) | 0.52 (≈ 0.898 µM) | – | 1.04 | 12.7 | – | CC1(CO/C(C(=O)Nc2cccc(Cl)c2)=C(/C=N)N2CCN(S(=O)(=O)NCc3ccc(N)c(F)c3)CC2)CC1 | 1.04 | – | –
409 | 8.35 (≈ 14.9 µM) | 2.08 (≈ 3.7 µM) | 16.7 (≈ 29.7 µM) | > 33 | 50 | – | – | – | CC1(CO/C(C(=O)Nc2cccc(Cl)c2)=C(/C=N)N2CCN(S(=O)(=O)NCc3ccnc(N)c3)CC2)CC1 | 16.7 | – | –
5310 | > 33 | 2.08 (≈ 3.81 µM) | – | – | – | – | – | – | CC1(CO/C(C(=O)Nc2cccc(Cl)c2)=C(/C=N)N2CCN(S(=O)(=O)NCc3ccccc3)CC2)CC1 | – | – | –
108 | 0.26 (≈ 0.452 µM) | 0.52 (≈ 0.904 µM) | 0.52 (≈ 0.904 µM) | 2.08 (≈ 3.62 µM) | 900 | – | – | 13.4 | Cc1cc(CNS(=O)(=O)N2CCN(/C(C=N)=C(\OCC3(C)CC3)C(=O)Nc3cccc(Cl)c3)CC2)ccc1N | 2.08 | – | –
117 | > 25 | 0.16 (≈ 0.301 µM) | – | – | – | – | – | – | N=C/C(=C(/OC1CCCC1)C(=O)Nc1cccc(Cl)c1)N1CCN(S(=O)(=O)Nc2ccccc2)CC1 | – | – | –
1300 | 2.08 (≈ 3.35 µM) | 0.52 (≈ 0.837 µM) | – | – | – | – | – | – | CC1(CO/C(C(=O)Nc2cccc(Cl)c2)=C(/C=N)N2CCN(S(=O)(=O)NCc3nc4cc(Cl)ccc4o3)CC2)CC1 | – | – | –
237 | 0.26 (≈ 0.44 µM) | 0.52 (≈ 0.88 µM) | 0.52 (≈ 0.88 µM) | 4.17 (≈ 7.05 µM) | 440 | 2.08 | 15 | – | COc1ccc(CNS(=O)(=O)N2CCN(/C(C=N)=C(\OCC3(C)CC3)C(=O)Nc3cccc(Cl)c3)CC2)cc1N | 4.17 | – | –
530 | 0.52 (≈ 0.861 µM) | 0.13 (≈ 0.215 µM) | – | – | – | – | – | – | COC(=O)c1ccc(CNS(=O)(=O)N2CCN(/C(C=N)=C(\OCC3(C)CC3)C(=O)Nc3cccc(Cl)c3)CC2)cc1 | – | – | –
625 | 6.25 (≈ 12.2 µM) | 0.2 (≈ 0.391 µM) | – | – | – | – | – | – | CCN(CC)S(=O)(=O)N1CCN(/C(C=N)=C(\OC2CCCC2)C(=O)Nc2cccc(Cl)c2)CC1 | – | – | –
398 | 0.26 (≈ 0.431 µM) | 0.26 (≈ 0.431 µM) | – | – | – | – | – | – | CC1(CO/C(C(=O)Nc2cccc(Cl)c2)=C(/C=N)N2CCN(S(=O)(=O)NCc3nc4ccccc4s3)CC2)CC1 | – | – | –
2870 | 25 (≈ 47.5 µM) | 0.39 (≈ 0.741 µM) | – | – | – | – | – | – | N=C/C(=C(/OC1CCCC1)C(=O)Nc1cccc(Cl)c1)N1CCN(S(=O)(=O)N2CCOCC2)CC1 | – | – | –
522 | 1.04 (≈ 1.81 µM) | 1.04 (≈ 1.81 µM) | 4.17 (≈ 7.25 µM) | 8.35 (≈ 14.5 µM) | 1300 | – | – | – | CC(NS(=O)(=O)N1CCN(/C(C=N)=C(\OCC2(C)CC2)C(=O)Nc2cccc(Cl)c2)CC1)c1cccc(N)c1 (stereo not drawn) | 16.7 | – | –
157 | 0.52 (≈ 0.88 µM) | 0.52 (≈ 0.88 µM) | 1.04 (≈ 1.76 µM) | 4.17 (≈ 7.05 µM) | 860 | 4.17 | 12.6 | – | COc1cc(CNS(=O)(=O)N2CCN(/C(C=N)=C(\OCC3(C)CC3)C(=O)Nc3cccc(Cl)c3)CC2)ccc1N | 4.17 | inactive | inactive
1450 | 10 (≈ 19.5 µM) | 0.39 (≈ 0.762 µM) | – | – | – | – | – | – | CC(C)N(C)S(=O)(=O)N1CCN(/C(C=N)=C(\OC2CCCC2)C(=O)Nc2cccc(Cl)c2)CC1 | – | – | –
42100 | > 33 | 16.7 (≈ 36.6 µM) | – | – | – | – | – | – | N=C/C(=C(/OC1CCCC1)C(=O)Nc1cccc(Cl)c1)N1CCN(S(N)(=O)=O)CC1 | – | – | –
125 | 0.26 (≈ 0.452 µM) | 0.26 (≈ 0.452 µM) | 0.52 (≈ 0.904 µM) | 2.08 (≈ 3.62 µM) | 1410 | – | – | 19.6 | Cc1ccc(CNS(=O)(=O)N2CCN(/C(C=N)=C(\OCC3(C)CC3)C(=O)Nc3cccc(Cl)c3)CC2)cc1N | 1.04 | – | –
87.9 | 0.03 (≈ 0.0549 µM) | < 0.02 | – | – | – | – | – | – | N=C/C(=C(/OC1CCCC1)C(=O)Nc1cccc(Cl)c1)N1CCN(S(=O)(=O)NCc2ccccc2)CC1 | – | – | –
91.4 | 0.52 (≈ 0.95 µM) | 2.08 (≈ 3.8 µM) | – | – | – | – | – | – | CC1(CO/C(C(=O)Nc2cccc(Cl)c2)=C(/C=N)N2CCN(S(=O)(=O)NCc3ccncc3)CC2)CC1 | – | – | –
1900 | 6.25 (≈ 12.9 µM) | 0.1 (≈ 0.207 µM) | – | – | – | – | – | – | CN(C)S(=O)(=O)N1CCN(/C(C=N)=C(\OC2CCCC2)C(=O)Nc2cccc(Cl)c2)CC1 | – | – | –
297 | 0.26 (≈ 0.429 µM) | 0.06 (≈ 0.099 µM) | – | – | – | – | – | – | COc1ccc(CNS(=O)(=O)N2CCN(/C(C=N)=C(\OCC3(C)CC3)C(=O)Nc3cccc(Cl)c3)CC2)cc1OC | – | – | –
97.2 | 0.52 (≈ 0.843 µM) | 0.06 (≈ 0.0972 µM) | – | – | – | – | – | – | Cc1nc2ccc(CNS(=O)(=O)N3CCN(/C(C=N)=C(\OCC4(C)CC4)C(=O)Nc4cccc(Cl)c4)CC3)cc2s1 | – | – | –
